Reference: ChEMBL document CHEMBL3792322, “Metabolic investigation on ZL006 for the discovery of a potent prodrug for the treatment of cerebral ischemia” (Bioorg Med Chem Lett, 2016)
The source made the active and inactive calls. The rule behind the calls is not given here.

What was measured:
Brain [1] = experiment: Drug metabolism in mouse brain assessed as ZL006 formation at 20 mg/kg, iv measured 15 to 30 mins post dosing by HPLC-MS/MS method; format: ADME, organism-based; details: in vivo
Plasma = experiment: Metabolic stability in mouse plasma at 20 mg/kg, iv measured 15 to 30 mins post dosing by HPLC-MS/MS method; format: ADME, organism-based; details: in vivo
Mus musculus [2] = experiment: Protective activity in BCCAO-induced mouse acute cerebral ischemia model assessed as prolonged surviving time at 4 mg/kg, iv measured 1 hr post dose; format: functional, organism-based
Brain [3] = experiment: Drug uptake in mouse brain at 20 mg/kg, iv measured 15 to 30 mins post dosing by HPLC-MS/MS method; format: ADME, organism-based; details: in vivo
Mus musculus [4] = experiment: Protective activity in BCCAO-induced mouse acute cerebral ischemia model assessed as prolonged surviving time at 4 mg/kg, iv measured 4 hrs post dose; format: functional, organism-based
Rattus norvegicus [5] = experiment: Protective activity in iv dosed MCAO-induced rat focal cerebral ischemia model assessed as reduction in infarct size treated at 1 hr post reperfusion measured after 24 hrs by TTC-staining based analysis; format: functional, organism-based
Rattus norvegicus [6] = experiment: Protective activity in MCAO-induced rat focal cerebral ischemia model assessed as reduction in infarct size at 2 mg/kg, iv administered 1 hr post reperfusion measured after 24 hrs by TTC-staining based analysis; format: functional, organism-based
Rattus norvegicus [7] = experiment: Protective activity in MCAO-induced rat focal cerebral ischemia model assessed as reduction in infarct size at 1 mg/kg, iv administered 1 hr post reperfusion measured after 24 hrs by TTC-staining based analysis; format: functional, organism-based

COC(=O)c1ccc(NCc2cc(Cl)cc(Cl)c2O)cc1O
Drug metabolism (Brain [1]): metabolite_detected | Stability (Plasma): Stable | Activity (Mus musculus [2]): Active

COc1c(Cl)cc(Cl)cc1CNc1ccc(C(=O)O)c(O)c1
Drug metabolism (Brain [1]): metabolite_notdetected

COc1cc(NCc2cc(Cl)cc(Cl)c2O)ccc1C(=O)O
Drug metabolism (Brain [1]): metabolite_notdetected | Stability (Plasma): Unstable | Drug uptake (Brain [3]): Not Active

CN(Cc1cc(Cl)cc(Cl)c1O)c1ccc(C(=O)O)c(O)c1
Drug metabolism (Brain [1]): metabolite_notdetected | Drug uptake (Brain [3]): Not Active

O=C(OC1CCCCC1)c1ccc(NCc2cc(Cl)cc(Cl)c2O)cc1O
Drug metabolism (Brain [1]): metabolite_detected | Stability (Plasma): Stable | Activity (Mus musculus [2]): Active | Activity (Mus musculus [4]): Active | Activity (Rattus norvegicus [5]): Dose-dependent effect | Activity (Rattus norvegicus [6]): inactive | Activity (Rattus norvegicus [7]): Active

CCOC(=O)c1ccc(NCc2cc(Cl)cc(Cl)c2O)cc1O
Drug metabolism (Brain [1]): metabolite_detected | Stability (Plasma): Stable | Activity (Mus musculus [2]): Active | Activity (Mus musculus [4]): Active
